For 3 compounds, activity, melting point and viability results are on record in patent US20090253709A1 (NATIONAL DEFENSE MEDICAL CENTER, priority 2008, published 2009).

For the first data set, the system named is hTERT expression. Put plainly: SEAP assay in hTERT-BJ1-PTERT(3.4)-SEAP cells. The format is cell-based. Particulars: Homo sapiens; BJ1; compound concentration 1 μM; read-out: SEAP (Inhibition μM ± SD). The procedure: A total of 2×10^3 hTERT-BJ1-PTERT(3.4)-SEAP cells were seeded in the 96-well cell culture plate, and incubated with DMEM (GIBCO®)/glucose mixture and Medium 199 (GIBCO®)/10% FBS/1 mM sodium pyruvate (GIBCO®)/4 mM L-glutamine (GIBCO®) mixture at a ratio of 4:1 at 37° C. for 24 hours. When the cells were attached in the bottom of the well, the seriously-diluted compounds with different concentrations ([…]) were treated with the cells for 48 hours, and the PTERT(3.4)-SEAP cells without drug treatment were being the control. After 48 hours of drug treatment, the cultured medium were collected for performing the analysis of SEAP activity. The cells were washed with 1×PBS once immediately, and the MTT assay was performed to compare the compounds with the relative toxicity or the influence to the proliferation and activity.
The cellular medium after the cellular incubation was transferred into the eppondorf tube, and the activity of endogeneous alkaline phosphatase was inactivated at 65° C. for 10 minutes. After centrification, the mixture was obtained by mixing 50 μl of the supernatant with the equal volume of the SEAP buffer. The mixture and the substrate (120 mM of p-nitrophenylphosphate) were preheated at 37° C. for 10 minutes respectively, and the mixture and the substrate were mixed at a ratio of 1:10 and reacted at 37° C. The absorbance of visible light at 405 nm was determined at the appropriate time intervals, and the enzymatic activity of SEAP was represented by the speed of the increasing absorbance at 405 nm.
With `O=C(CCN1CCNCC1)Nc1ccc2c(c1)C(=O)c1cc(NC(=O)CCN3CCNCC3)ccc1C2=O` [Compound 24, 2,7-Bis[3-(piperazino)propionamido]anthraquinone], the activity at 1 µM was 163 ± 22%.
The same measure, in the same setting: the result for `O=C(CCCCl)Nc1ccc2c(c1)C(=O)c1cc(NC(=O)CCCCl)ccc1C2=O` [Compound 25, 2,7-Bis(4-chlorobutyramido)anthraquinone] reads 13 ± 58%.

Staying with this data set, now noted: Homo sapiens; BJ1; compound concentration 10 μM; read-out: SEAP (Inhibition μM ± SD).
As for `CN1CCN(CCC(=O)Nc2ccc3c(c2)C(=O)c2cc(NC(=O)CCN4CCN(C)CC4)ccc2C3=O)CC1` [Compound 23, 2,7-Bis[3-(N-methylpiperazino)propionamido]anthraquinone], the activity at 10 µM stood at 138 ± 115%.
Take `O=C(CCN1CCNCC1)Nc1ccc2c(c1)C(=O)c1cc(NC(=O)CCN3CCNCC3)ccc1C2=O` [Compound 24, 2,7-Bis[3-(piperazino)propionamido]anthraquinone]: the activity at 10 µM stood at 118 ± 26%.
For the compound `O=C(CCCCl)Nc1ccc2c(c1)C(=O)c1cc(NC(=O)CCCCl)ccc1C2=O` [Compound 25, 2,7-Bis(4-chlorobutyramido)anthraquinone], the activity at 10 µM was determined as 42 ± 45%.

Still in this data set, the particulars now being: Homo sapiens; BJ1; compound concentration 100 μM; read-out: SEAP (Inhibition μM ± SD).
For `CN1CCN(CCC(=O)Nc2ccc3c(c2)C(=O)c2cc(NC(=O)CCN4CCN(C)CC4)ccc2C3=O)CC1` [Compound 23, 2,7-Bis[3-(N-methylpiperazino)propionamido]anthraquinone], the activity at 100 µM was found to be 232 ± 66%.
With `O=C(CCN1CCNCC1)Nc1ccc2c(c1)C(=O)c1cc(NC(=O)CCN3CCNCC3)ccc1C2=O` [Compound 24, 2,7-Bis[3-(piperazino)propionamido]anthraquinone], the activity at 100 µM was 131 ± 29%.
The same measure, in the same setting: the result for `O=C(CCCCl)Nc1ccc2c(c1)C(=O)c1cc(NC(=O)CCCCl)ccc1C2=O` [Compound 25, 2,7-Bis(4-chlorobutyramido)anthraquinone] reads 75 ± 16%.

Test system in a further data set: not given
Assay: not given
Settings: not given
The compound `CN1CCN(CCC(=O)Nc2ccc3c(c2)C(=O)c2cc(NC(=O)CCN4CCN(C)CC4)ccc2C3=O)CC1` [Compound 23, 2,7-Bis[3-(N-methylpiperazino)propionamido]anthraquinone] gave a melting point of 284 °C.
As for `O=C(CCN1CCNCC1)Nc1ccc2c(c1)C(=O)c1cc(NC(=O)CCN3CCNCC3)ccc1C2=O` [Compound 24, 2,7-Bis[3-(piperazino)propionamido]anthraquinone], the melting point came out at 218 °C.
Turning to `O=C(CCCCl)Nc1ccc2c(c1)C(=O)c1cc(NC(=O)CCCCl)ccc1C2=O` [Compound 25, 2,7-Bis(4-chlorobutyramido)anthraquinone], the melting point is 234 °C.

Test system in another data set: not listed separately
Put plainly: MTT assay in BJ1 cells. The format is cell-based. Particulars: human, hTERT-BJ1-PTERT(3.4)-SEAP cells; BJ1; compound concentration 1 μM; read-out: MTT (Inhibition μM ± SD). A digest of the protocol:
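After 48 h drug treatment, cells in DMEM/Medium 199 (4:1) with 10% FBS were given MTT (5 mg/ml stock) in serum-free medium for 4 h at 37 °C, lysed overnight in 20% SDS/50% DMF, and absorbance read at 570 nm.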
`CN1CCN(CCC(=O)Nc2ccc3c(c2)C(=O)c2cc(NC(=O)CCN4CCN(C)CC4)ccc2C3=O)CC1` [Compound 23, 2,7-Bis[3-(N-methylpiperazino)propionamido]anthraquinone]: the viability at 48 h, 1 µM amounted to 95 ± 2%.
Still for that read-out and setting: as for `O=C(CCN1CCNCC1)Nc1ccc2c(c1)C(=O)c1cc(NC(=O)CCN3CCNCC3)ccc1C2=O` [Compound 24, 2,7-Bis[3-(piperazino)propionamido]anthraquinone], the figure is 96 ± 2%.
On the same count and under the same terms, the result for `O=C(CCCCl)Nc1ccc2c(c1)C(=O)c1cc(NC(=O)CCCCl)ccc1C2=O` [Compound 25, 2,7-Bis(4-chlorobutyramido)anthraquinone] reads 72 ± 3%.

The data set is the same for the next values; noted with them: human, hTERT-BJ1-PTERT(3.4)-SEAP cells; BJ1; compound concentration 10 μM; read-out: MTT (Inhibition μM ± SD).
On to `CN1CCN(CCC(=O)Nc2ccc3c(c2)C(=O)c2cc(NC(=O)CCN4CCN(C)CC4)ccc2C3=O)CC1` [Compound 23, 2,7-Bis[3-(N-methylpiperazino)propionamido]anthraquinone], for which the viability at 48 h, 10 µM was determined as 80 ± 2%.
In the case of `O=C(CCN1CCNCC1)Nc1ccc2c(c1)C(=O)c1cc(NC(=O)CCN3CCNCC3)ccc1C2=O` [Compound 24, 2,7-Bis[3-(piperazino)propionamido]anthraquinone], the viability at 48 h, 10 µM was found to be 100 ± 3%.
With `O=C(CCCCl)Nc1ccc2c(c1)C(=O)c1cc(NC(=O)CCCCl)ccc1C2=O` [Compound 25, 2,7-Bis(4-chlorobutyramido)anthraquinone], the viability at 48 h, 10 µM is 62 ± 2%.

Still in this data set, the particulars now being: human, hTERT-BJ1-PTERT(3.4)-SEAP cells; BJ1; compound concentration 100 μM; read-out: MTT (Inhibition μM ± SD).
As to `CN1CCN(CCC(=O)Nc2ccc3c(c2)C(=O)c2cc(NC(=O)CCN4CCN(C)CC4)ccc2C3=O)CC1` [Compound 23, 2,7-Bis[3-(N-methylpiperazino)propionamido]anthraquinone], the viability at 48 h, 100 µM came out at 61 ± 1%.
On the same count and under the same terms, as for `O=C(CCN1CCNCC1)Nc1ccc2c(c1)C(=O)c1cc(NC(=O)CCN3CCNCC3)ccc1C2=O` [Compound 24, 2,7-Bis[3-(piperazino)propionamido]anthraquinone], the figure is 88 ± 4%; as for `O=C(CCCCl)Nc1ccc2c(c1)C(=O)c1cc(NC(=O)CCCCl)ccc1C2=O` [Compound 25, 2,7-Bis(4-chlorobutyramido)anthraquinone], 58 ± 3%.

Test system in another data set: not listed separately
Nature of the data set: MTT assay in H1299 cells. It is filed as cell-based. Particulars: human, H1299 cells (H1299/PhTERT-driven SEAP reporter system); H1299; compound concentration 1 μM; read-out: MTT (Inhibition μM ± SD). In outline:
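H1299 cells, 2×10^3 per well, treated with drug 48 h. MTT (5 mg/ml stock) added for 4 h at 37° C, then SDS/DMF lysis overnight; absorbance at 570 nm gives viability, used alongside SEAP reporter readout to correct for cell number.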
On to `CN1CCN(CCC(=O)Nc2ccc3c(c2)C(=O)c2cc(NC(=O)CCN4CCN(C)CC4)ccc2C3=O)CC1` [Compound 23, 2,7-Bis[3-(N-methylpiperazino)propionamido]anthraquinone], for which the viability at 24 h, 1 µM was 95 ± 18%.
As to `O=C(CCN1CCNCC1)Nc1ccc2c(c1)C(=O)c1cc(NC(=O)CCN3CCNCC3)ccc1C2=O` [Compound 24, 2,7-Bis[3-(piperazino)propionamido]anthraquinone], the viability at 24 h, 1 µM was 97 ± 8%.
The same measure, in the same setting: as for `O=C(CCCCl)Nc1ccc2c(c1)C(=O)c1cc(NC(=O)CCCCl)ccc1C2=O` [Compound 25, 2,7-Bis(4-chlorobutyramido)anthraquinone], the figure is 84 ± 18%.

The data set is the same for the next values; noted with them: human, H1299 cells (H1299/PhTERT-driven SEAP reporter system); H1299; compound concentration 10 μM; read-out: MTT (Inhibition μM ± SD).
As to `CN1CCN(CCC(=O)Nc2ccc3c(c2)C(=O)c2cc(NC(=O)CCN4CCN(C)CC4)ccc2C3=O)CC1` [Compound 23, 2,7-Bis[3-(N-methylpiperazino)propionamido]anthraquinone], the viability at 24 h, 10 µM worked out at 80 ± 15%.
In the case of `O=C(CCN1CCNCC1)Nc1ccc2c(c1)C(=O)c1cc(NC(=O)CCN3CCNCC3)ccc1C2=O` [Compound 24, 2,7-Bis[3-(piperazino)propionamido]anthraquinone], the viability at 24 h, 10 µM is 94 ± 8%.
In the case of `O=C(CCCCl)Nc1ccc2c(c1)C(=O)c1cc(NC(=O)CCCCl)ccc1C2=O` [Compound 25, 2,7-Bis(4-chlorobutyramido)anthraquinone], the viability at 24 h, 10 µM was determined as 40 ± 2%.

The same data set, now with this note: human, H1299 cells (H1299/PhTERT-driven SEAP reporter system); H1299; compound concentration 100 μM; read-out: MTT (Inhibition μM ± SD).
In the case of `CN1CCN(CCC(=O)Nc2ccc3c(c2)C(=O)c2cc(NC(=O)CCN4CCN(C)CC4)ccc2C3=O)CC1` [Compound 23, 2,7-Bis[3-(N-methylpiperazino)propionamido]anthraquinone], the viability at 24 h, 100 µM was determined as 39 ± 6%.
With `O=C(CCN1CCNCC1)Nc1ccc2c(c1)C(=O)c1cc(NC(=O)CCN3CCNCC3)ccc1C2=O` [Compound 24, 2,7-Bis[3-(piperazino)propionamido]anthraquinone], the viability at 24 h, 100 µM was 102 ± 13%.
Regarding `O=C(CCCCl)Nc1ccc2c(c1)C(=O)c1cc(NC(=O)CCCCl)ccc1C2=O` [Compound 25, 2,7-Bis(4-chlorobutyramido)anthraquinone], the viability at 24 h, 100 µM amounted to 22 ± 2%.
